Paper PMC6071264 (Toxins, 2018)
Bridge positions count the residues as written; N and C are the ends. Peptide text beside a SMILES is read from it.

Assays:
[1] = target: T84 cells (Homo sapiens, UniProt P25092); experiment: T84 cell assay (cGMP response); assay type: cell-based; conditions: read-out: EC50 in the T84 cell assay, pre-incubation 1 mM IBMX 10 min, sample 60 min at 37 °C, cGMP enzyme immunoassay, three independent experiments, four-parameter logistic regression, bottom set to zero, Figure 2C
Chain of T84 cells (P25092 24-1073): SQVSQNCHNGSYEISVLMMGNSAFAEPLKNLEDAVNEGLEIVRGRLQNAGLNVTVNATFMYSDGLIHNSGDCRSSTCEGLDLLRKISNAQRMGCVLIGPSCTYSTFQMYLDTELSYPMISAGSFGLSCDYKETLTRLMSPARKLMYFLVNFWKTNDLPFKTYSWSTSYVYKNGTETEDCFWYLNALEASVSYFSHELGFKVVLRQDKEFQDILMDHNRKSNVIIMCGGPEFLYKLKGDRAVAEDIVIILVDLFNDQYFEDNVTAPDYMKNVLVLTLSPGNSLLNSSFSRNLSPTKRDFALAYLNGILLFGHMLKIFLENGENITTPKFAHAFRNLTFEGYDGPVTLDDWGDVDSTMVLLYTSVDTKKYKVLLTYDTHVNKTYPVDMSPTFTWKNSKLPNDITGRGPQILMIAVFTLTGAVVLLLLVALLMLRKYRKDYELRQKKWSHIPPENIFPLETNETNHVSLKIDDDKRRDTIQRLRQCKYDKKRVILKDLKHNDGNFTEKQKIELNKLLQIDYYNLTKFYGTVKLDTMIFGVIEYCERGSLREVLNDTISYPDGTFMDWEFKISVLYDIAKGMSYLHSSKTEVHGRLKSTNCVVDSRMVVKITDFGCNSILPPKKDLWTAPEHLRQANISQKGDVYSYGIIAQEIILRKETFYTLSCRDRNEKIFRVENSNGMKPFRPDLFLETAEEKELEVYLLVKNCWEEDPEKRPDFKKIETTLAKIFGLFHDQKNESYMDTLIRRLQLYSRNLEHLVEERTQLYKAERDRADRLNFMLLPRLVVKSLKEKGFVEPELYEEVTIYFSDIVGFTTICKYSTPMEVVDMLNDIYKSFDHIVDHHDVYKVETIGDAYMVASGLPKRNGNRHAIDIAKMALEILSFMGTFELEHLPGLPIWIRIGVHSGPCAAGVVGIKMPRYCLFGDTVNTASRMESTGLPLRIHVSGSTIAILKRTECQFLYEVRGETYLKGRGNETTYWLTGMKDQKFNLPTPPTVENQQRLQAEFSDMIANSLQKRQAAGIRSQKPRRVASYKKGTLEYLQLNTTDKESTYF

[2] = tested on: C30 anti-STp monoclonal antibody; conditions: read-out: IC50, inhibition of C30 mAb binding to ELISA coating (peptides from RP-HPLC peaks)

| Compound | EC50 [1] | IC50 [2] |
| --- | --- | --- |
| CC(C)C[C@@H]1NC(=O)[C@H](CCC(=O)O)NC(=O)[C@@H]2CSSC[C@@H]3NC(=O)[C@H](C)NC(=O)[C@@H]4CCCN4C(=O)[C@H](CC(N)=O)NC(=O)[C@H](CSSC[C@H](NC(=O)[C@H](Cc4ccc(O)cc4)NC(=O)[C@H](CC(N)=O)NC(=O)[C@H](CO)NC(=O)[C@H](CO)NC(=O)[C@@H](N)CC(N)=O)C(=O)N2)NC(=O)[C@H](CSSC[C@@H](C(=O)N[C@@H](Cc2ccc(O)cc2)C(=O)O)NC(=O)CNC(=O)[C@H]([C@@H](C)O)NC3=O)NC1=O [ETEC STh] (H-NSSNYCCELCCNPACTGCY-OH; disulfide 6-11, 7-15, 10-18; N-terminus and C-terminus assumed) | 22.9 ± 6.8 nM |  |
| CC(C)C[C@@H]1NC(=O)[C@H](CCC(=O)O)NC(=O)[C@@H]2CSSC[C@@H]3NC(=O)[C@H](C)NC(=O)[C@@H]4CCCN4C(=O)[C@H](CC(N)=O)NC(=O)[C@H](CSSC[C@H](NC(=O)[C@H](Cc4ccc(O)cc4)NC(=O)[C@H](CC(N)=O)NC(=O)[C@H](CO)NC(=O)[C@H](CO)NC(=O)[C@@H](N)CC(N)=O)C(=O)N2)NC(=O)[C@H](CSSC[C@@H](C(=O)N[C@@H](Cc2ccc(O)cc2)C(=O)O)NC(=O)CNC(=O)[C@H]([C@@H](C)O)NC3=O)NC1=O [STh] (H-NSSNYCCELCCNPACTGCY-OH; disulfide 6-11, 7-15, 10-18) | 15.4 ± 3 nM | 4.2 ± 0.3 nM |
| CC(C)C[C@@H]1NC(=O)[C@H](CCC(=O)O)NC(=O)[C@@H]2CSSC[C@@H]3NC(=O)[C@H](C)NC(=O)[C@@H]4CCCN4C(=O)[C@H](CC(N)=O)NC(=O)[C@H](CSSC[C@H](NC(=O)[C@H](Cc4ccc(O)cc4)NC(=O)[C@H](Cc4ccccc4)NC(=O)[C@@H](NC(=O)[C@@H](N)CC(N)=O)[C@@H](C)O)C(=O)N2)NC(=O)[C@H](CSSC[C@@H](C(=O)N[C@@H](Cc2ccc(O)cc2)C(=O)O)NC(=O)CNC(=O)[C@H](C)NC3=O)NC1=O [STp] | 15.4 ± 3.8 nM |  |
| CC(C)C[C@@H]1NC(=O)[C@H](CCC(=O)O)NC(=O)[C@@H]2CSSC[C@@H]3NC(=O)[C@H](C)NC(=O)[C@@H]4CCCN4C(=O)[C@H](CC(N)=O)NC(=O)[C@H](CSSC[C@H](NC(=O)[C@H](Cc4ccc(O)cc4)NC(=O)[C@H](CC(N)=O)NC(=O)[C@H](CO)NC(=O)[C@H](CO)NC(=O)[C@@H](N)CC(N)=O)C(=O)N2)NC(=O)[C@H](CSSC[C@@H](C(=O)N[C@@H](Cc2ccc(O)cc2)C(=O)O)NC(=O)CNC(=O)[C@H]([C@@H](C)O)NC3=O)NC1=O [synthetic STh] (H-NSSNYCCELCCNPACTGCY-OH; disulfide 6-11, 7-15, 10-18) | 9.6 ± 1.8 nM | 2.3 ± 0.1 nM |
